In patent publication US20260273252A1, “GROOVED MICRONEEDLES FOR PASSIVE AND ACTIVE DRUG DELIVERY” (Trustees of Tufts College, priority 2023, published 2026):

What was measured:
[1] = test system: PTSD symptoms in patients; conditions: cited from earlier work
[2] = test system: gait function; assay: Forced swim test, gait function; type: in vivo; conditions: compared with ketamine
[3] = test system: mice with a spinal nerve injury; conditions: 24 hours following a single injection; cited from earlier work
[4] = test system: thermal nociception in rodents; assay: Hot plate test, noxious thermal stimulus of 50 degrees Celsius (pilot studies); type: in vivo; conditions: for antinociceptive effects on thermal nociception (latency to lick a hind paw): 10 mg/kg i.p. for three consecutive days, hot plate 50 degrees Celsius, males, 24, 48 and 72 hours post treatment; for block of the antinociceptive effects of (2R,6R)-HNK by antagonist pretreatment: hot plate, given with (2R,6R)-HNK
Procedure: In addition, pilot studies were conducted to assess the antinociceptive potential of (2R,6R)-HNK (10 mg/kg intraperitoneal (i.p.) injection administered for three consecutive days) in response to a noxious thermal stimulus of 50 degrees Celsius on the hot plate apparatus. The latency to lick a hind paw was measured in males before and after (2R,6R)-HNK treatment at 24, 48, and 72 hours post treatment.

[5] = test system: rodent model for CRPS and postoperative pain; conditions: cited from earlier work
[6] = 6 times over a 2-week period, 0.5 mg/kg 40-min infusions, treatment resistant subjects

CNC1(c2ccccc2Cl)CCCCC1=O (racemic) [ketamine]
median time to relapse after the cessation of treatment [1, 6]: 41 days
start of persistent remission following the first infusion [1, 6]: ≥ 24 h
persistence of resolution of PTSD symptoms before re-emergence ([1]; single dose, adults and children): over one
patient health questionnaire score after treatment ([1]; six 1-hour infusions, mean final dose 163.83 mg, reduced from 18.5): 9.5
PTSD checklist for DSM-5 after treatment ([1]; six 1-hour infusions, mean final dose 163.83 mg, reduced from 56.2): 31.3

N[C@@]1(c2ccccc2Cl)CCC[C@@H](O)C1=O [(2R,6R)-HNK, 2R,6R-hydroxynorketamine]
impairment of gait function [2]: does not impair gait function significantly
antinociceptive effects after a single injection [3]: Antinociceptive effects
antinociceptive effects on thermal nociception (latency to lick a hind paw) [4]: long-lasting antinociceptive effects
persistence of analgesic effects following administration [5]: up to five

N[C@]1(c2ccccc2Cl)CCC[C@H](O)C1=O [(2S,6S)-HNK]
antinociceptive effects on thermal nociception (latency to lick a hind paw) [4]: not extended

NS(=O)(=O)c1cccc2c1c([N+](=O)[O-])cc1nc(O)c(O)nc12 [NBQX]
block of the antinociceptive effects of (2R,6R)-HNK by antagonist pretreatment [4]: effectively block

O=C1CC[C@@]2(O)[C@H]3Cc4ccc(O)c5c4[C@@]2(CCN3CC2CC2)[C@H]1O5 [naltrexone]
block of the antinociceptive effects of (2R,6R)-HNK by antagonist pretreatment [4]: failed to block
